Test results from ChEMBL document CHEMBL5370531, “Design, synthesis and pharmacological evaluation of 2,3-dihydrobenzofuran IRAK4 inhibitors for the treatment of diffuse large B-cell lymphoma” (Eur J Med Chem, 2023).
Active and inactive are the calls of the source. The rule behind the calls is not given here.

Key:
[1] = target: Tyrosine-protein kinase BTK (Homo sapiens) (UniProt Q06187); assay: Inhibition of BTK (unknown origin) at 100 nM incubated for 1 hr in presence of ATP by ELISA analysis
OCI-Ly10 [2] = assay: Induction of apoptosis in human OCILY10 cells harboring MYD88 L265P assessed as late apoptotic cells at 0.1 uM incubated for 48 hrs in presence of BTK inhibitor, ibrutinib by Annexin V-FITC/PI staining based flow cytometry (reference value: 6.59 %); type: functional
OCI-Ly10 [3] = assay: Synergistic antiproliferative activity against human OCILY10 cells harboring MYD88 L265P assessed as inhibition of cell growth at 200 nM incubated for 72 hrs in presence of BTK inhibitor, ibrutinib at 6.2 nM by CCK-8 assay (reference value: 26.07 %); type: functional
[4] = target: Proto-oncogene tyrosine-protein kinase receptor Ret (Homo sapiens) (UniProt P07949); assay: Inhibition of RET (unknown origin) at 100 nM incubated for 1 hr in presence of ATP by ELISA analysis relative to control
OCI-Ly10 [5] = assay: Induction of apoptosis in human OCILY10 cells assessed as late apoptotic cells at 0.2 uM incubated for 48 hrs by Annexin V-FITC/PI staining based flow cytometry (reference value: 3.54 %); type: functional
OCI-Ly10 [6] = assay: Synergistic antiproliferative activity against human OCILY10 cells harboring MYD88 L265P assessed as inhibition of cell growth at 800 nM incubated for 72 hrs in presence of BTK inhibitor, ibrutinib at 1.6 nM by CCK-8 assay (reference value: 54.76 %); type: functional
[7] = target: Vascular endothelial growth factor receptor 2 (Homo sapiens) (UniProt P35968); assay: Inhibition of VEGFR2 (unknown origin) at 100 nM incubated for 1 hr in presence of ATP by ELISA analysis
OCI-Ly10 [8] = assay: Synergistic antiproliferative activity against human OCILY10 cells harboring MYD88 L265P assessed as inhibition of cell growth at 200 nM incubated for 72 hrs in presence of BTK inhibitor, ibrutinib at 12.5 nM by CCK-8 assay (reference value: 26.07 %); type: functional
OCI-Ly10 [9] = assay: Synergistic antiproliferative activity against human OCILY10 cells harboring MYD88 L265P assessed as inhibition of cell growth at 100 nM incubated for 72 hrs in presence of BTK inhibitor, ibrutinib at 6.2 nM by CCK-8 assay (reference value: 21.36 %); type: functional
[10] = target: Tyrosine-protein kinase ABL1 (Homo sapiens) (UniProt P00519); assay: Inhibition of ABL (unknown origin) at 100 nM incubated for 1 hr in presence of ATP by ELISA analysis
[11] = target: Insulin-like growth factor 1 receptor (Homo sapiens) (UniProt P08069); assay: Inhibition of IGFR1 (unknown origin) at 100 nM incubated for 1 hr in presence of ATP by ELISA analysis
OCI-Ly10 [12] = assay: Synergistic antiproliferative activity against human OCILY10 cells harboring MYD88 L265P assessed as inhibition of cell growth at 800 nM incubated for 72 hrs in presence of BTK inhibitor, ibrutinib at 12.5 nM by CCK-8 assay (reference value: 54.76 %); type: functional
OCI-Ly10 [13] = assay: Induction of apoptosis in human OCILY10 cells at 1 uM incubated for 24 hrs by Annexin V-FITC/PI staining based flow cytometry; type: functional
[14] = target: Receptor tyrosine-protein kinase erbB-4 (Homo sapiens) (UniProt Q15303); assay: Inhibition of ERBB4 (unknown origin) at 100 nM incubated for 1 hr in presence of ATP by ELISA analysis
[15] = target: Vascular endothelial growth factor receptor 3 (Homo sapiens) (UniProt P35916); assay: Inhibition of VEGFR3 (unknown origin) at 100 nM incubated for 1 hr in presence of ATP by ELISA analysis
OCI-Ly10 [16] = assay: Induction of apoptosis in human OCILY10 cells assessed as early apoptotic cells at 0.1 uM incubated for 24 hrs by Annexin V-FITC/PI staining based flow cytometry (reference value: 10 %); type: functional
OCI-Ly10 [17] = assay: Induction of apoptosis in human OCILY10 cells assessed as late apoptotic cells at 0.5 uM incubated for 48 hrs by Annexin V-FITC/PI staining based flow cytometry (reference value: 3.54 %); type: functional
[18] = Cytotoxicity against human GM00637 cells assessed as inhibition of cell proliferation incubated for 72 hrs by CCK-8 assay; type: toxicity, cell-based
[19] = target: Mast/stem cell growth factor receptor Kit (Homo sapiens) (UniProt P10721); assay: Inhibition of C-kit (unknown origin) at 100 nM incubated for 1 hr in presence of ATP by ELISA analysis
OCI-Ly10 [20] = assay: Synergistic antiproliferative activity against human OCILY10 cells harboring MYD88 L265P assessed as inhibition of cell growth at 100 nM incubated for 72 hrs in presence of BTK inhibitor, ibrutinib at 1.6 nM by CCK-8 assay (reference value: 21.36 %); type: functional
OCI-Ly10 [21] = assay: Induction of apoptosis in human OCILY10 cells assessed as upregulation of PARP cleavage at 0.1 to 1 uM incubated for 48 hrs by immunoblotting analysis; type: functional, cell-based; details: dose 0.1-1 µM
OCI-Ly10 [22] = assay: Induction of apoptosis in human OCILY10 cells assessed as early apoptotic cells at 0.2 uM incubated for 48 hrs by Annexin V-FITC/PI staining based flow cytometry (reference value: 5.4 %); type: functional
OCI-Ly10 [23] = assay: Synergistic antiproliferative activity against human OCILY10 cells harboring MYD88 L265P assessed as inhibition of cell growth at 1600 nM incubated for 72 hrs in presence of BTK inhibitor, ibrutinib at 12.5 nM by CCK-8 assay (reference value: 64.69 %); type: functional
OCI-Ly10 [24] = assay: Synergistic antiproliferative activity against human OCILY10 cells harboring MYD88 L265P assessed as inhibition of cell growth at 800 nM incubated for 72 hrs in presence of BTK inhibitor, ibrutinib at 25 nM by CCK-8 assay (reference value: 54.76 %); type: functional
OCI-Ly10 [25] = assay: Induction of apoptosis in human OCILY10 cells assessed as late apoptotic cells at 1 uM incubated for 48 hrs by Annexin V-FITC/PI staining based flow cytometry (reference value: 3.54 %); type: functional
OCI-Ly10 [26] = assay: Induction of apoptosis in human OCILY10 cells harboring MYD88 L265P assessed as upregulation of caspase-3 cleavage at 0.2 uM in presence of BTK inhibitor, ibrutinib by immunoblotting analysis; type: functional, cell-based
OCI-Ly10 [27] = assay: Synergistic antiproliferative activity against human OCILY10 cells harboring MYD88 L265P assessed as inhibition of cell growth at 800 nM incubated for 72 hrs in presence of BTK inhibitor, ibrutinib at 3.1 nM by CCK-8 assay (reference value: 54.76 %); type: functional
[28] = target: Macrophage colony-stimulating factor 1 receptor (Homo sapiens) (UniProt P07333); assay: Inhibition of CSF1R (unknown origin) at 100 nM incubated for 1 hr in presence of ATP by ELISA analysis
Sequence of Macrophage colony-stimulating factor 1 receptor (Homo sapiens) (P07333 whole entry): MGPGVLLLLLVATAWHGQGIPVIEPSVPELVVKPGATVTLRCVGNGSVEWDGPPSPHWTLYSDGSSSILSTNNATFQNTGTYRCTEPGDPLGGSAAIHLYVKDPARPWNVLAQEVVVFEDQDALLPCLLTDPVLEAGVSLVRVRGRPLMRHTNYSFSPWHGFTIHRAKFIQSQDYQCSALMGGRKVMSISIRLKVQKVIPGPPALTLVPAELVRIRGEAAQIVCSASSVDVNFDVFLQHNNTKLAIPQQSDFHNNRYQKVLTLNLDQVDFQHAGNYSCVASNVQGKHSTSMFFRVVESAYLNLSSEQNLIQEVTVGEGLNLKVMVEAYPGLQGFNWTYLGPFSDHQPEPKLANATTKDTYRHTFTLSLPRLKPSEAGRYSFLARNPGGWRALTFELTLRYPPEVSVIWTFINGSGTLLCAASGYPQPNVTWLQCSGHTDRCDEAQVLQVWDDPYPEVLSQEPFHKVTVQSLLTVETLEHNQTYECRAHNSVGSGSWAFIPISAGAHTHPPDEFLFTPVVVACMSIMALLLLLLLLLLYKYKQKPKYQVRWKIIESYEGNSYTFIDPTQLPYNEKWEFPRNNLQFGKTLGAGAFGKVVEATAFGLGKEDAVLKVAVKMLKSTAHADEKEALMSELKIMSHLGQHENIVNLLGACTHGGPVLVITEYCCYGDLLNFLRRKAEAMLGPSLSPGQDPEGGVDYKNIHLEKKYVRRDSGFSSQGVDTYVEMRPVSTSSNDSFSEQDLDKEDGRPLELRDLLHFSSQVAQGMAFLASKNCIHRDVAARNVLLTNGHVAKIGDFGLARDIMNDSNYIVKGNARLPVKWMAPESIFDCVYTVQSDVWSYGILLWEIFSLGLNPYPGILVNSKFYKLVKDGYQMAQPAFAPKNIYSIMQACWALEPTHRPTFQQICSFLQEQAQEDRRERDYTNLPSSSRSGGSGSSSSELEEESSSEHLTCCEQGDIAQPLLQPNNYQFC

Sequence of Vascular endothelial growth factor receptor 2 (Homo sapiens) (P35968 whole entry): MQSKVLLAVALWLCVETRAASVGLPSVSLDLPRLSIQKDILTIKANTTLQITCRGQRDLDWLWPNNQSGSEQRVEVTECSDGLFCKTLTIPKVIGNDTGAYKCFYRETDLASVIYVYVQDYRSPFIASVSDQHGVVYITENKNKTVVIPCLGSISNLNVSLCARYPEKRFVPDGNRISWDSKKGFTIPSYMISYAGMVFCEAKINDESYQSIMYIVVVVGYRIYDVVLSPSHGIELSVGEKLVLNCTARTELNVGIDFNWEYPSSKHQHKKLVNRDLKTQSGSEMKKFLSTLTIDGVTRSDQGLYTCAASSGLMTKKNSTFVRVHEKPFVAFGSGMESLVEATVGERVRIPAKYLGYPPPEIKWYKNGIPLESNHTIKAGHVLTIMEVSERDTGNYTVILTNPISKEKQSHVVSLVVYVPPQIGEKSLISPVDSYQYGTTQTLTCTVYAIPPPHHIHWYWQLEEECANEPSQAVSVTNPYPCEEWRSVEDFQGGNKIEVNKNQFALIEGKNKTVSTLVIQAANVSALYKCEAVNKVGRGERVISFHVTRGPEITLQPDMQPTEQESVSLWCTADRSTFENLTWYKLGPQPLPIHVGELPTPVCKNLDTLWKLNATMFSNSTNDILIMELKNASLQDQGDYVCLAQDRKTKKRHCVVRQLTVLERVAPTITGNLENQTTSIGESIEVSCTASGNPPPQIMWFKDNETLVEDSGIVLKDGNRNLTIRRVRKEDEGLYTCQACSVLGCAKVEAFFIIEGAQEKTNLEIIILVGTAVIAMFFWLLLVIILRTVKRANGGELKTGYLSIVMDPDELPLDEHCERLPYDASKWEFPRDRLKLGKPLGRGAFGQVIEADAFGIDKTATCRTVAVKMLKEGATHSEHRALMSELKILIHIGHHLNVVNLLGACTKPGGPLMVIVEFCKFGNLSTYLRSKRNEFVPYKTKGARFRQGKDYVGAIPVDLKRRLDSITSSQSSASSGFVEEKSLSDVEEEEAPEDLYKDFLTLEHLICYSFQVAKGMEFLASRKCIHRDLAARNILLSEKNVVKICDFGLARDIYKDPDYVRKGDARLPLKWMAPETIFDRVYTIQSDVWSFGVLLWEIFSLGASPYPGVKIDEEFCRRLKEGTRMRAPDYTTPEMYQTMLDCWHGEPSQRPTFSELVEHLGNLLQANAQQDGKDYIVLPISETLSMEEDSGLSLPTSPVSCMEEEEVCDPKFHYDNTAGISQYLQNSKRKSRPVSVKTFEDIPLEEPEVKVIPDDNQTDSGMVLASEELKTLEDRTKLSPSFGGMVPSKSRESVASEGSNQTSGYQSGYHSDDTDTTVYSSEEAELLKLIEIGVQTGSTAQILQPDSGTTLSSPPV
Sequence of Insulin-like growth factor 1 receptor (Homo sapiens) (P08069 31-736 limits assumed): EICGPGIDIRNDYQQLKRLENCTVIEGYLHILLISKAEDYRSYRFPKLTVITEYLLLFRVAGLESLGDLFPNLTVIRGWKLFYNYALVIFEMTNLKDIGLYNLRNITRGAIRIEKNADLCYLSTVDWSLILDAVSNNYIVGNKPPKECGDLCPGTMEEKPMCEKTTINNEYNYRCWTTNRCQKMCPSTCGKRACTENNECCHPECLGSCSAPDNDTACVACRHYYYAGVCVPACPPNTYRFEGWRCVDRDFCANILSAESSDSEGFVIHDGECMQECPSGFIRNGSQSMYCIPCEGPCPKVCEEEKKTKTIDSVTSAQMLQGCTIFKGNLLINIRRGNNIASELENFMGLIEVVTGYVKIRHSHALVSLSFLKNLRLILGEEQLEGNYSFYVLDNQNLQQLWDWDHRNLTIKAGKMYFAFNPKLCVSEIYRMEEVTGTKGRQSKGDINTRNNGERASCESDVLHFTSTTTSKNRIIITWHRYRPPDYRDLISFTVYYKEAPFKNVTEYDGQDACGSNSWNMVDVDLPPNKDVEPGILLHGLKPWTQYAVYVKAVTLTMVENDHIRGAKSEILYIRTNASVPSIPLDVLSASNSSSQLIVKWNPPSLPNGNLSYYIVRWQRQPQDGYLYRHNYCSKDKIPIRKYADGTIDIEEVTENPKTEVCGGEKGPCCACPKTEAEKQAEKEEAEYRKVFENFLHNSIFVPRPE
Sequence of Insulin-like growth factor 1 receptor (Homo sapiens) (P08069 741-1367 limits assumed): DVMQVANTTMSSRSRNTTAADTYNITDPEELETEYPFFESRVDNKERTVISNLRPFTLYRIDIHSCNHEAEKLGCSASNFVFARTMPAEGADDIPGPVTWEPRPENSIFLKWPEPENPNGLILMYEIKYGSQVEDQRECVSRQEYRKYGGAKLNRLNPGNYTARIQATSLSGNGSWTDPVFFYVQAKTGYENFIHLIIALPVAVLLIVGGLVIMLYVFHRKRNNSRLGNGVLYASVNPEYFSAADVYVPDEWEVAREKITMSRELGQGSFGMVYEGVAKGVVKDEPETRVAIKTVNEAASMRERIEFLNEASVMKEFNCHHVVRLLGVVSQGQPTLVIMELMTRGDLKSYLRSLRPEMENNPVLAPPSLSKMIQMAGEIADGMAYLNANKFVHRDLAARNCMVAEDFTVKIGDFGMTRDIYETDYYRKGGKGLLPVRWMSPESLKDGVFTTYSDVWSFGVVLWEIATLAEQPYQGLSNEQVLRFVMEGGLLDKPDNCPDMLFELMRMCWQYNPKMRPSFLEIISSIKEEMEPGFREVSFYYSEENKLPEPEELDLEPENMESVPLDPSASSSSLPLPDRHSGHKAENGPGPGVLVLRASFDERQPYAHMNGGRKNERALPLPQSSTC
Sequence of Tyrosine-protein kinase BTK (Homo sapiens) (Q06187 whole entry): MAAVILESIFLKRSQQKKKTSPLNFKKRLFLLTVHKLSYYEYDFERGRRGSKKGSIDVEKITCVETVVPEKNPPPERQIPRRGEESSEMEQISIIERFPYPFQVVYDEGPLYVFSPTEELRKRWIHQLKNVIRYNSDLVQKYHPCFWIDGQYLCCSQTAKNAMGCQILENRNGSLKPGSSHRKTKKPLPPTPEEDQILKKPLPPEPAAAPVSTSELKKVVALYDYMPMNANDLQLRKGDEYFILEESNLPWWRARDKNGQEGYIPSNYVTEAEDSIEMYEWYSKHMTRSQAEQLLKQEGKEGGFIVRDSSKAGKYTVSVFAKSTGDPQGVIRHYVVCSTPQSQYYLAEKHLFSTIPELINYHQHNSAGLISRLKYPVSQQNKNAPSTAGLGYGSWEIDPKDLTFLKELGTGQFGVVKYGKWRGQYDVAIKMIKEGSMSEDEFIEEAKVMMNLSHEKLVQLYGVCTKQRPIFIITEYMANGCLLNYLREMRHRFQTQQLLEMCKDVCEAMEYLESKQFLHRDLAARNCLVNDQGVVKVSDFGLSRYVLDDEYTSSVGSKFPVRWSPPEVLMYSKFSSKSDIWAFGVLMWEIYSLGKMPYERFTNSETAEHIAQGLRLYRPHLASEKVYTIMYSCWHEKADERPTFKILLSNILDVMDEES

Cn1cc(-c2cc3c(cc2NC(=O)c2coc(-c4ccnc(N)c4)n2)CC(C)(C)O3)cn1
inhibition [1]: inactive | Activity (OCI-Ly10 [2]): 22% | inhibition at 0.2 µM (OCI-Ly10 [3]): 53.8% | inhibition [4]: > 50% | Activity (OCI-Ly10 [5]): 13.2% | inhibition at 0.8 µM (OCI-Ly10 [6]): 58.1% | inhibition [7]: inactive | inhibition at 0.2 µM (OCI-Ly10 [8]): 67.5% | inhibition at 0.1 µM (OCI-Ly10 [9]): 44.9% | inhibition [10]: inactive | inhibition [11]: inactive | inhibition at 0.8 µM (OCI-Ly10 [12]): 86.4% | Activity (OCI-Ly10 [13]): 66.8% | inhibition [14]: inactive | inhibition [15]: inactive | Activity (OCI-Ly10 [16]): 9.32% | Activity (OCI-Ly10 [17]): 26.8% | IC50 at 72 h [18]: 1.52 µM | inhibition [19]: inactive | inhibition at 0.1 µM (OCI-Ly10 [20]): 23.7% | Activity (OCI-Ly10 [21]): Active | Activity (OCI-Ly10 [22]): 21.2% | inhibition at 1.6 µM (OCI-Ly10 [23]): 88.7% | inhibition at 0.8 µM (OCI-Ly10 [24]): 88.4% | Activity (OCI-Ly10 [25]): 37.7% | Activity (OCI-Ly10 [26]): Active | inhibition at 0.8 µM (OCI-Ly10 [27]): 64.6% | inhibition [28]: inactive
